Measured values as given in PMC3137686 (Synapse (New York, N.Y.), 2011).
“Also recorded” adds a separate entry of the source.

Experiments:
[1] = tested on: brain 5-HT axonal markers; conditions: intrastriatal administration; ref Jones et al. 2005; cited from earlier work
cytochrome P450 (CYP450) = conditions: ref Broly et al. 1990; Ramamoorthy et al. 2002; Heydari et al. 2004; cited from earlier work
Rectal = assay type: in vivo, rat
[2] = tested on: brain serotonin (5-HT) neurons; experiment: Regional brain 5-HT and 5-HIAA concentrations one week after drug treatment; assay type: in vivo, rat; conditions: one week after single oral dose of 20 mg/kg MDMA
[3] = tested on: brain serotonin (5-HT) neurons; conditions: ref Paris and Cunningham 1992, Esteban et al. 2001, Escobedo et al. 2005; cited from earlier work

In the case of `CNC(C)Cc1cc(O)c(O)c(SC[C@H](NC(C)=O)C(=O)O)c1` (stereo partly shown) [5-NAC-HHMA, 5-N-acetylcystein-S-yl-HHMA], the “lasting depletions of indoles in the rat brain” value [1] is given as “produces lasting depletions of indoles”.

In the case of `COc1ccc2c(c1)[C@]13CCCC[C@@H]1[C@H](C2)N(C)CC3` [DXM, dextromethorphan], the “inhibition of CYP450-mediated metabolism of MDMA to HHMA” value (cytochrome P450 (CYP450)) is listed as “potent competitive inhibitor”, the “effect of DXM on body (core) temperature” value (Rectal; DXM 30 mg/kg i.p. x3, alone or in combination with MDMA 20 mg/kg p.o.) is listed as “did not significantly alter; also recorded: no significant effect” and the “body temperature after combination of MDMA and DXM” value (Rectal; MDMA 20 mg/kg p.o. + DXM 30 mg/kg i.p. x3) is listed as “longer lasting decrease in temperature, which was followed by an increase in core temperature”. For the same compound, the “peak temperatures, MDMA/DXM group vs MDMA/Saline group” value (Rectal; MDMA 20 mg/kg p.o. + DXM 30 mg/kg i.p. x3, difference did not achieve statistical significance) was “lower”.

In the case of `CNC(C)Cc1ccc2c(c1)OCO2` (stereo not shown) [MDMA, 3,4-Methylenedioxymethamphetamine], the “5-HT and 5-HIAA concentrations across brain regions after MDMA” value [2] is given as “lasting effects” and the “toxic effects after central administration” value [3] is given as “does not produce toxic effects”.
